Experimental findings from PMC12172326 (Journal of Biomedical Science, 2025) are described below.

For assay [1], the target named is T1, human cereblon (Homo sapiens, UniProt Q96SW2).
T1 construct: purchased BPS Bioscience 79770
Kind of assay: cereblon/BRD3 binding assay (AlphaScreen in methods, FRET assay in results). As to conditions: dBET1-Cereblon-BRD3 interaction. The method, then: Following 30 min incubation with shaking at room temperature, AlphaLISA anti-FLAG Acceptor and Alpha Glutathione Donor beads (PerkinElmer) were sequentially added and then incubated for a further 1 h at room temperature for each of the added chemicals. Alpha counts were, thereafter, recorded on a Synergy Neo2 (BioTek, Agilent, Santa Clara, CA). The relative activity of the alpha signal was calculated after subtraction of the “blank value” from all readings, and the value of vehicle group was then set as 100%.
On the technique in general: Alpha assays give light when donor and acceptor beads are brought close together.

Assay [2] has as its system mice subjected to controlled cortical impact (CCI) TBI. Kind of assay: CCI TBI in mice: behavioral assessment. Type of assay: in vivo, mouse. As to conditions: for CCI-induced asymmetry, elevated body swing test: 1 week post injury; for home cage activity during the initial 11 h following CCI: dark phase; for CCI-induced reduction in brake time (gait): left hind limb, 1 week after injury. The method, then:
For behavioral analyses, mice were assessed for spatial memory, gait function, motor coordination/balance function and home cage activity. The animals were subsequently evaluated for cellular changes using histology and immunohistochemistry after euthanasia.
In order to develop a controlled cortical impact (CCI) model of TBI, mice were anesthetized with 2.5% 2,2,2-tribromoethanol (Avertin, 400 mg/kg, I.P.) (Sigma, St. Louis, MO, USA) and placed in a stereotaxic frame (Kopf Instruments, Tujunga, CA, USA). A 4 mm craniotomy was performed under sterile procedures; the craniotomy point was selected midway between the lambda and bregma sutures, and laterally midway between the central suture and the temporalis muscle. The skull fragment was then carefully removed without disruption of the underlying dura on the right side of the head. Before injury, the tip of the impactor was angled and kept perpendicular to the exposed cortical surface. The mouse CCI instrument consisted of an electromagnetic impactor, Impact One (Leica Biosystems Inc., Buffalo Grove, IL, USA) that allows independent manipulation of injury severity by adjusting the contact duration and velocity of a metal impactor and the depth of cortical deformation. In these experiments, the contact velocity was set at 5.0 m/s, the dwell time was set at 0.2 s, and the deformation depth was set at 1.5 mm to produce a moderate TBI. The injury site was cleaned and dried by use of sterile cotton tipped applicators prior to suturing the wound. During surgery and recovery, the body temperature of all animals was maintained at 36–37 °C by using a heating pad.
Behavioral tests were conducted 1 week and 2 weeks post the CCI/sham procedure, to evaluate motor function and coordination differences between groups, and to compare with data performed 1 week prior to either procedure. All behavioral tests were conducted during the animals’ day light cycle; home cages were moved to behavioral rooms at least 1 h before testing.
Home cage activity monitoring was automatically and non-intrusively monitored using the digital individually ventilated cage system (DVC™; Tecniplast). Mice were individually housed, and their activity was tracked for 3 days before CCI/sham and 7 days after CCI/sham procedures.
Beam Walking Test (BWT) was used to evaluate CCI-induced impairments in motor coordination. Mice have an intrinsic preference for a darkened enclosed environment, as compared to an open bright field. Each mouse was placed in a darkened one-side-open cube box for 2 min for habituation and then was brought to the other (light) end of the beam, to start the trial. Two beams were used in this study with the following dimensions: 0.6 cm or 1.2 cm (width) × 91 cm (length). The time taken for each mouse to traverse the beam to reach the dark cube box and the ‘immobility time’ spent between the moment a mouse was initially placed on the beam and it started walking were recorded. Two trials were recorded for each animal with the 1.2 cm-width beam, and an additional two trials with the 0.6 cm-width were subsequently recorded. The mean times to traverse the beam and the immobility times were calculated, and a plot was generated to evaluate treatment effects; these times were then used for statistical analysis.
Gait analysis was employed to assess gait parameters following a specific protocol provided by the DigiGait manufacturer (Mouse Specifics, Inc., Framingham, MA, USA). The study tracked gait function at three time points: baseline, 1-week prior to CCI (PRE), and 1- and 2-weeks post-CCI. At the beginning of the trial, mice were brought to the test chamber for habituation to the new environment for 2 min, and then were given a 1-min run at 5 cm/sec before a 1-min break. […] Videos were assessed using DigiGait software to evaluate parameters that included stride duration, length, paw angle, and stance for all four limbs, following Mouse Specifics, Inc.'s procedures. […]

[3] abbreviates: high dose, initial 5 min on Day 2, 1 week after CCI, vs CCI + Vehicle.
Where [4] appears, read: high dose, vs CCI + vehicle, p < 0.05.
The mark [5] stands for this setting: low dose, p < 0.05 vs CCI + Vehicle.

T1 sequence (Q96SW2 whole entry): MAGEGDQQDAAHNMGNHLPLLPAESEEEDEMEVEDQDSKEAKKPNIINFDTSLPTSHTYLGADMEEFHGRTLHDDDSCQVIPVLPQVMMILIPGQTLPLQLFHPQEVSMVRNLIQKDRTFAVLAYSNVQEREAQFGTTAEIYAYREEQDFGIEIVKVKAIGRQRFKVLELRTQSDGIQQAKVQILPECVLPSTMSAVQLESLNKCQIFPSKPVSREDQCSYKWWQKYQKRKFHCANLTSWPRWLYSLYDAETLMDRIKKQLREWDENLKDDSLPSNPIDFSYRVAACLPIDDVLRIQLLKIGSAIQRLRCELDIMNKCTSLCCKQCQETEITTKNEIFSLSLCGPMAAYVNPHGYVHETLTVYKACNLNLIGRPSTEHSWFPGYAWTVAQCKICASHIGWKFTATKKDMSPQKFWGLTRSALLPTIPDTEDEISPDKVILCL
T1 sequence (Q16531 whole entry partner): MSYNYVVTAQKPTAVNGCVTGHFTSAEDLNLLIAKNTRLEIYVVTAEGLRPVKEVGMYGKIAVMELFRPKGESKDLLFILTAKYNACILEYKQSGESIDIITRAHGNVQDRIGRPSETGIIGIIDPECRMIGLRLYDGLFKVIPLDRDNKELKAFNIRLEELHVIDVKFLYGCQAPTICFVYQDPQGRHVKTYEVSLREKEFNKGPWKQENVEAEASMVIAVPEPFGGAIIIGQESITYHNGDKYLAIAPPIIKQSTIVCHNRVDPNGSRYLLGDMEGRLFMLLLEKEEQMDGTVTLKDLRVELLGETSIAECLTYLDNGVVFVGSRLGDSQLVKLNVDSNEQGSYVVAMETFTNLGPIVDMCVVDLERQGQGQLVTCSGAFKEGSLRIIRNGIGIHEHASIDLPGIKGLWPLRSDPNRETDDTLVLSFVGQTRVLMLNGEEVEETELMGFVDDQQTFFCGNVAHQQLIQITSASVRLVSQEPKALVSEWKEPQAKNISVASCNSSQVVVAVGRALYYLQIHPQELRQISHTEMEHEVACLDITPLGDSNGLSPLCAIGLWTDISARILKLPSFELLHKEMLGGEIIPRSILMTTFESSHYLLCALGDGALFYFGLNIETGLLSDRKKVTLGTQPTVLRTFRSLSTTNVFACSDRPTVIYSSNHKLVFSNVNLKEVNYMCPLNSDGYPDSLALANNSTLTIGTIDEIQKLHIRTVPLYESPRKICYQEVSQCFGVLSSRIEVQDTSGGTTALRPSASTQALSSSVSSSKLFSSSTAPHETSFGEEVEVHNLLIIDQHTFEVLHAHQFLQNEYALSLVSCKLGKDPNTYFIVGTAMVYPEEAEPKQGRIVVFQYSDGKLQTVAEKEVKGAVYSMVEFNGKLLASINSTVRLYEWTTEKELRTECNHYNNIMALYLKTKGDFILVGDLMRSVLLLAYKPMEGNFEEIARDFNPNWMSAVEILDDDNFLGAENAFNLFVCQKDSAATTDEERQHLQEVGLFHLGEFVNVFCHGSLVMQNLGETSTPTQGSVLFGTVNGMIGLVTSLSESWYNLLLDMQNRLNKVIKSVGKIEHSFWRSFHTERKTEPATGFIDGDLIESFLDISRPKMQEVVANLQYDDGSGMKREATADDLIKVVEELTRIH
T1 sequence (Q13619 whole entry partner): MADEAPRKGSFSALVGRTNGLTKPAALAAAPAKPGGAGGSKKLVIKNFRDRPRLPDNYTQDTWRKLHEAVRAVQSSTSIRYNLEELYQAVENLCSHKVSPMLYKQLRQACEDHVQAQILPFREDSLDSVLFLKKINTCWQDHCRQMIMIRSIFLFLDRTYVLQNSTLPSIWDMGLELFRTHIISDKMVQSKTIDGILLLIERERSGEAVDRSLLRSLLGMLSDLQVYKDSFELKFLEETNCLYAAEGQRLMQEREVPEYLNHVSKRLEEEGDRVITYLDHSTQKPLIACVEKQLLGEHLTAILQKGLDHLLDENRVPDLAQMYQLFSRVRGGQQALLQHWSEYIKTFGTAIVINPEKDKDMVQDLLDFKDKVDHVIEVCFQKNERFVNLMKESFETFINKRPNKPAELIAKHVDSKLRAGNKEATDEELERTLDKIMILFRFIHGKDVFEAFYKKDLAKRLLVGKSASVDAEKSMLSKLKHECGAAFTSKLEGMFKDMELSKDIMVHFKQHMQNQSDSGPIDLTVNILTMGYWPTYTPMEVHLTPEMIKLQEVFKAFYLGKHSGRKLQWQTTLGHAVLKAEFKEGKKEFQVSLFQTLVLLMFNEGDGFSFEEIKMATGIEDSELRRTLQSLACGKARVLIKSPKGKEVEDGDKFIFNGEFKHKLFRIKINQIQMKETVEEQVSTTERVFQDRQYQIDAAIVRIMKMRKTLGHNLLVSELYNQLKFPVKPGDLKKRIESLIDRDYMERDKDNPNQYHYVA
T1 sequence (P62877 whole entry partner): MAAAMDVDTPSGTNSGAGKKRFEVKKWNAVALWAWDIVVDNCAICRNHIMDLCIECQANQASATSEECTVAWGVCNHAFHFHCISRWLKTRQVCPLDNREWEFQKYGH

For orientation: IC50 means the point on the concentration scale where inhibition reaches its midpoint. As to `Nc1cccc2c1C(=S)N(C1CCC(=O)NC1=O)C2=O` (stereo not drawn) [3-MP, 3-monothiopomalidomide], the IC50 in assay [1] was 210 nM. The “CCI-induced elevation of swing duration CV (gait)” value in assay [2] (both low and high doses, p < 0.05 vs CCI + Vehicle) is “significantly reduced”. In addition, the “CCI-induced asymmetry, elevated body swing test” value in assay [2] (high dose) is recorded as “trend towards normalization”. Further, the “home cage activity during the initial 11 h following CCI” value in assay [2] (high dose, vs CCI + vehicle) is “did not reach statistical significance”. The “discrimination index (DI) of distance traveled” value in assay [2] (high dose, initial 5 min, vs CCI + Vehicle) is “substantially higher”. In assay [2] (setting [3]), the “ambulatory time in the center zone, novelty-dependent exploration test” value is “significantly lower” and the “distance traveled, novelty-dependent exploration test” value is given as “significantly lower”. Further, the “CCI-induced reduction in brake time (gait)” value in assay [2] (high dose, p < 0.05) is reported as “significantly alleviated”. Moreover, in assay [2] (setting [4]), the “discrimination index (DI) of duration in the center” value is “significantly higher” and the “home cage activity on the day after CCI” value was “significantly higher”. Moreover, the “lower home cage activity 24 h later (night + 1)” value in assay [2] (low dose and high dose, vs CCI + vehicle, p < 0.05) is listed as “significantly mitigated”. In addition, in assay [2] (setting [5]), the “CCI-induced asymmetry, elevated body swing test” value was “notably reduced” and the “paw angle impairment (gait)” value is “mitigated”. In addition, in assay [2] (low dose, vs CCI + vehicle, p < 0.05), the “home cage activity during the initial 11 h following CCI” value is given as “notably higher”. Moreover, in assay [2] (low dose), the “CCI-induced reduction in brake time (gait)” value is “trend towards improvement”.
